Experimental data: patent publication US9591978B2, “Methods and compositions for pre-screening patients for treatment with noribogaine” (DemeRX, Inc., priority 2014, dated 2017)
“Also recorded” adds a separate entry of the source.

How the values were obtained:
[1] = test system: healthy, drug-free male volunteers; assay: Pupillometry (pupillary miosis) in healthy volunteers; type: in vivo, human
Experimental: (§1) Pulse oximetry and capnography data were collected continuously using a GE Carescape B650 monitoring system from 2 hours prior to dosing and until six hours after dosing, and thereafter at 12, 24, 48 and 72 hours post-dosing. […] Pupillary miosis was assessed by pupillometry.
Summary statistics (means, standard deviations, and coefficients of variation) were determined for each dose group for safety laboratory test data, ECG and pharmacokinetic parameters, and pharmacodynamic variables. Categorical variables were analysed using counts and percentages. Dose-proportionality of AUC and Cmax was assessed using linear regression. The effect of dose on pharmacodynamic parameter values over time was assessed using two-factor analysis of variance (ANOVA). Pairwise comparisons (with Tukey-Kramer adjustment) between each dose group to the placebo were conducted at each time point using the least squares estimates obtained from the ANOVA, using SAS Proc Mixed (SAS ver 6.0).

[2] = test system: healthy, drug-free male volunteers; assay: Cold pressor test (analgesic effect) in healthy volunteers; type: in vivo, human
Experimental: Analgesic effect was assessed based on duration of hand immersion in ice water and on visual analog scale (VAS) pain scores upon hand removal from the water bath.
(§2) Safety and tolerability of noribogaine were tested in the group of volunteers from Example 1. […] Safety evaluations included clinical monitoring, recording of adverse events (AEs), safety laboratory tests, vital signs, ECG telemetry from −2 h to 6 h after dosing, and 12-lead electrocardiograms (ECGs) up to 216 hours post-dosing.

[3] = test system: healthy, drug-free male volunteers; assay: Safety and tolerability of noribogaine in healthy humans; type: in vivo, human
Experimental: as §1, §2

[4] = test system: opioid-dependent participants; assay: Time to resumption of opioid substitution treatment (OST); type: in vivo, human; settings: for therapeutic response: methadone addicted patients
[5] = test system: opioid-dependent participants; assay: Opiate withdrawal scales (COWS, SOWS, OOWS); type: in vivo, human; settings: first six hours following dosing
Experimental: Patients were evaluated based on the Clinical Opiate Withdrawal Scale (COWS), Subjective Opiate Withdrawal Scale (SOWS), and Objective Opiate Withdrawal Scale (OOWS) scoring systems over the period of time between administration of noribogaine (or placebo) until resumption of OST. These scales are outlined in Guidelines for the Psychosocially Assisted Pharmacological Treatment of Opioid Dependence, World Health Organization, Geneva (2009), Annex 10, which is incorporated herein by reference in its entirety. The scales measure the intensity of withdrawal symptoms, based on clinical, subjective, and objective indicia.

[6] = test system: opioid-dependent participants; assay: QT interval prolongation in opioid-dependent patients; type: in vivo, human
Experimental: Patients' QT intervals were evaluated at regular time points throughout the study.

[7] = Pharmacokinetics in opioid-dependent patients (Phase IB study); settings: 60-180 mg
[8] = test system: opioid-dependent participants; assay: Treatment emergent adverse events in opioid-dependent participants
[9] = Pharmacokinetics of noribogaine in healthy volunteers (plasma, LCMSMS); settings: for CL/F: healthy male volunteers, fasted, n = 6, mean (SD); for mean AUC/24 hr / mean AUC/24: fasting conditions
[10] = after adjusting for baseline, p>0.9
[11] = opioid-dependent participants, 60, 120, 180 mg
[12] = opioid-dependent patients, single 60 mg noribogaine dose, N = 6
[13] = opioid-dependent patients, single 120 mg noribogaine dose, N = 6
[14] = opioid-dependent patients, single 180 mg noribogaine dose, N = 6

Compound: CC[C@H]1CC2C[C@H]3c4[nH]c5ccc(O)cc5c4CCN(C2)C13 [noribogaine]
- pupil diameter, each dose group vs placebo by ANOVA [1, 10]: no statistically significant differences
- pupillary constriction ([1]; healthy volunteers, 3-60 mg single oral dose): no evidence of pupillary constriction
- VAS pain scores, each dose group vs placebo by ANOVA ([2]; after adjusting for baseline, p=0.17): no statistically significant differences
- duration of hand immersion, each dose group vs placebo by ANOVA [2, 10]: no statistically significant differences
- analgesic effect in the cold pressor test ([2]; healthy volunteers, 3-60 mg single oral dose, 1° C. water): no analgesic effect
- adverse events reported ([3]; 3 mg dose group, by two subjects): five
- adverse events reported ([3]; 10 mg dose group, single subject): one
- adverse events reported ([3]; 30 mg dose group, single subject): one
- intensity of adverse events ([3]; all adverse events of the study, all resolved prior to study completion): mild-moderate
- Adverse events: Mild ([3]; healthy volunteers, 3 mg): Dizziness; also recorded: Epistaxis; also recorded: Headache; also recorded: Back pain
- Adverse events: Moderate ([3]; healthy volunteers, 3 mg): Headache
- Adverse events: Mild ([3]; healthy volunteers, 10 mg): Headache
- Adverse events: Mild ([3]; healthy volunteers, 30 mg): Headache
- oximetry, capnography, respiratory rate ([3]; healthy volunteers, 3-60 mg): no changes in oximetry or capnography, or changes in respiratory rate
- vital signs and safety laboratory tests ([3]; healthy volunteers, 3-60 mg): no changes in vital signs or safety laboratory tests of note
- QTcF values ([3]; healthy volunteers, at any time): ≤ 500 ms
- increase in QTcF ([3]; one subject dosed with 10 mg, single increase at 24 hours post-dosing): > 60 ms
- time to resumption of opioid substitution therapy compared with 60 mg ([4]; 120 mg): significantly longer
- time to resumption of OST compared with untreated patients or 60 mg noribogaine ([4]; 180 mg): still longer
- therapeutic response ([4]; single 60 mg dosing): generally does not provide a meaningful therapeutic response
- therapeutic response ([4]; single 120 mg dosing): generally provides a meaningful therapeutic response
- average time to resumption of opioids ([4]; single 120 mg dose): greater than 20 hours
- withdrawal symptoms (COWS, OOWS, SOWS) ([5]; 120 mg): generally experienced fewer withdrawal symptoms than the other patients
- withdrawal symptoms compared with placebo (COWS, OOWS, SOWS) ([5]; 60, 120, 180 mg): Patients administered placebo generally experienced more withdrawal symptoms than patients who were administered noribogaine
- QT interval prolongation (ΔQTcl) versus dose and serum concentration ([6]; 60, 120, 180 mg, first 24 hours post administration): dose-dependent increase in QT interval prolongation
- relation of QT interval prolongation to dose ([6]; doubling the dose gives about a doubling of the prolongation): linear pattern
- QT interval in some patients ([6]; patients receiving 120 mg): greater than 500 ms
- QT interval prolongation in some patients ([6]; patients receiving 120 mg): greater than 50 ms
- average QT interval prolongation ([6]; patients receiving 120 mg): approximately 38 ms
- maximum serum concentration (Cmax) versus dose [7]: increased in a dose-dependent manner
- headaches ([8]; 60 mg noribogaine treatment group): frequent
- headaches ([8]; 120 mg dose group): attenuated
- headaches ([8]; 180 mg dose group): attenuated
- adverse effects observed [8, 11]: Few adverse effects
- hallucinatory effects [8, 11]: no hallucinatory effects
- Treatment emergent adverse events: Catheter Site Infection [8, 12]: 0
- Treatment emergent adverse events: Catheter Site Pain [8, 12]: 0
- Treatment emergent adverse events: Catheter Site Related Reaction [8, 12]: 0
- Treatment emergent adverse events: Cellulitis [8, 12]: 0
- Treatment emergent adverse events: Diarrhoea [8, 12]: 0
- Treatment emergent adverse events: Dry Mouth [8, 12]: 0
- Treatment emergent adverse events: Ear and Labyrinth Disorders [8, 12]: 0
- Treatment emergent adverse events: Epistaxis [8, 12]: 0
- Treatment emergent adverse events: Euphoric Mood [8, 12]: 0
- Treatment emergent adverse events: General Disorders and Administration Site Conditions [8, 12]: 0
- Treatment emergent adverse events: Hyperaesthesia [8, 12]: 0
- Treatment emergent adverse events: Infections and Infestations [8, 12]: 0
- Treatment emergent adverse events: Limb Discomfort [8, 12]: 0
- Treatment emergent adverse events: Malaise [8, 12]: 0
- Treatment emergent adverse events: Nausea [8, 12]: 0
- Treatment emergent adverse events: Oropharyngeal Pain [8, 12]: 0
- Treatment emergent adverse events: Pseudoparalysis [8, 12]: 0
- Treatment emergent adverse events: Respiratory, Thoracic and Mediastinal Disorders [8, 12]: 0
- Treatment emergent adverse events: Rhinorrhoea [8, 12]: 0
- Treatment emergent adverse events: Skin Discomfort [8, 12]: 0
- Treatment emergent adverse events: Skin Irritation [8, 12]: 0
- Treatment emergent adverse events: Skin and Subcutaneous Tissue Disorders [8, 12]: 0
- Treatment emergent adverse events: Somnoience [8, 12]: 0
- Treatment emergent adverse events: Tinnitus [8, 12]: 0
- Treatment emergent adverse events: Tremor [8, 12]: 0
- Treatment emergent adverse events: Urinary Tract Infection [8, 12]: 0
- Treatment emergent adverse events: Vomiting [8, 12]: 0
- Treatment emergent adverse events: Back Pain [8, 13]: 0
- Treatment emergent adverse events: Catheter Site Infection [8, 13]: 0
- Treatment emergent adverse events: Catheter Site Related Reaction [8, 13]: 0
- Treatment emergent adverse events: Depressed Mood [8, 13]: 0
- Treatment emergent adverse events: Dry Eye [8, 13]: 0
- Treatment emergent adverse events: Dyspepsia [8, 13]: 0
- Treatment emergent adverse events: Euphoric Mood [8, 13]: 0
- Treatment emergent adverse events: Limb Discomfort [8, 13]: 0
- Treatment emergent adverse events: Malaise [8, 13]: 0
- Treatment emergent adverse events: Musculoskeletal and Connective Tissue Disorders [8, 13]: 0
- Treatment emergent adverse events: Psychiatric Disorders [8, 13]: 0
- Treatment emergent adverse events: Somnoience [8, 13]: 0
- Treatment emergent adverse events: Urinary Tract Infection [8, 13]: 0
- Treatment emergent adverse events: Catheter Site Infection [8, 14]: 0
- Treatment emergent adverse events: Catheter Site Pain [8, 14]: 0
- Treatment emergent adverse events: Depressed Mood [8, 14]: 0
- Treatment emergent adverse events: Diarrhoea [8, 14]: 0
- Treatment emergent adverse events: Dry Eye [8, 14]: 0
- Treatment emergent adverse events: Dyspepsia [8, 14]: 0
- Treatment emergent adverse events: Ear and Labyrinth Disorders [8, 14]: 0
- Treatment emergent adverse events: Epistaxis [8, 14]: 0
- Treatment emergent adverse events: Euphoric Mood [8, 14]: 0
- Treatment emergent adverse events: Hyperaesthesia [8, 14]: 0
- Treatment emergent adverse events: Malaise [8, 14]: 0
- Treatment emergent adverse events: Oropharyngeal Pain [8, 14]: 0
- Treatment emergent adverse events: Pseudoparalysis [8, 14]: 0
- Treatment emergent adverse events: Psychiatric Disorders [8, 14]: 0
- Treatment emergent adverse events: Respiratory, Thoracic and Mediastinal Disorders [8, 14]: 0
- Treatment emergent adverse events: Rhinorrhoea [8, 14]: 0
- Treatment emergent adverse events: Skin Discomfort [8, 14]: 0
- Treatment emergent adverse events: Skin Irritation [8, 14]: 0
- Treatment emergent adverse events: Skin and Subcutaneous Tissue Disorders [8, 14]: 0
- Treatment emergent adverse events: Somnoience [8, 14]: 0
- Treatment emergent adverse events: Tinnitus [8, 14]: 0
- Treatment emergent adverse events: Tremor [8, 14]: 0
- CL/F ([9]; single oral 3 mg noribogaine): 41.4 (7.0) L/h
- CL/F ([9]; single oral 10 mg noribogaine): 42.3 (12.0) L/h
- CL/F ([9]; single oral 30 mg noribogaine): 46.9 (16.4) L/h
- CL/F ([9]; single oral 60 mg noribogaine): 34.0 (11.4) L/h
- dose-proportionality of Cmax and AUC ([9]; healthy volunteers, 3-60 mg): increased linearly with dose
- time of peak concentrations after oral dosing ([9]; healthy volunteers, across 3-60 mg dose groups): 2 to 3 h
- mean half-life estimates ([9]; healthy volunteers, across dose groups): 28 to 50 h
- mean AUC/24 hr ([9]; single dose of 3 mg noribogaine free base): 3.1 ng/mL
- mean AUC/24 hr ([9]; single dose of 10 mg noribogaine free base): 10.6 ng/mL
- mean AUC/24 ([9]; single dose of 30 mg noribogaine free base): 29.2 ng/mL
- mean AUC/24 ([9]; single dose of 60 mg noribogaine free base): 61 ng/mL
